The text below walks through data of patent US20250333371A1, “COMPOUNDS” (PSYLO PTY LTD, priority 2022, published 2025).

Read-outs that look alike come from different tables or passages of the source.

Common to all, as to format: cell-based
One test deals with T1, 5-HT2A (Homo sapiens, UniProt P28223).
T1 construct: host or cells: HEK293
Nature of the test: FLIPR Ca2+ flux functional assay, 5-HT2A receptor (stably transfected HEK293). The method, then:
(§1) Activity at 5-HT2A, 5-HT2B and 5-HT2C receptors was determined using a FLIPR Ca^2+ flux assay at WuXi AppTec Co. Ltd. (Hong Kong) Discovery Biology Unit according to their standard protocols. Briefly, stably transfected cells expressing the receptor of interest (HEK293 for 5-HT2A and 5-HT2C; CHO-K1 for 5-HT2B) were grown and plated in a 384 well plate and incubated at 37° C. and 5% CO2 overnight. A 250 mM stock solution of probenecid in FLIPR calcium assay buffer (10 mL) was freshly prepared and combined with a fluorescent dye (Fluo-4 Direct) to give a final assay concentration of 2.5 mM. Reference compounds were 4-fold serially diluted and the screening compounds were 3-fold serially diluted in 100% DMSO for 10 points using Agilent Bravo, and 750 nL was added to a 384 well compound plate using Echo along with 30 μL assay buffer. The fluorescent dye was then added to the assay plate along with assay buffer to a final volume of 40 μL. The cell plate was incubated for 50 min at 37° C. and 5% CO2 and placed into the FLIPR Tetra along with the compound plate. 10 μL of references and compounds were then transferred from the compound plate into the cell plate and the fluorescent signal was read.

The target in another test is T2, 5-HT2B (Homo sapiens, UniProt P41595).
T2 construct: host or cells: CHO-K1
T2 sequence (P41595 whole entry): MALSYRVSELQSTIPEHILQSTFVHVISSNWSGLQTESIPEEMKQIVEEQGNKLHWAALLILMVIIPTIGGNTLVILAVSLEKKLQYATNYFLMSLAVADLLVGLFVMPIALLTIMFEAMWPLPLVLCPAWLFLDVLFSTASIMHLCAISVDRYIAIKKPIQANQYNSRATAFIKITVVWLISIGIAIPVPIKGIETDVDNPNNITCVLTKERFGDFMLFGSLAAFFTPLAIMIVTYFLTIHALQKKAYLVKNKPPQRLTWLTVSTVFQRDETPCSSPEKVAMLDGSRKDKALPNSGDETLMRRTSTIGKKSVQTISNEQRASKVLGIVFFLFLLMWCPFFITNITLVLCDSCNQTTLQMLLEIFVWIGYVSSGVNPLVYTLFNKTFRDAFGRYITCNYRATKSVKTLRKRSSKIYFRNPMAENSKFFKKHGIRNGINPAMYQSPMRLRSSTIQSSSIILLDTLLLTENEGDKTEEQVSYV
Nature of the test: FLIPR Ca2+ flux functional assay, 5-HT2B receptor (stably transfected CHO-K1). The method, then:
as §1

The target of another test is T3, 5-HT2C (Homo sapiens, UniProt P28335).
T3 construct: host or cells: HEK293
T3 sequence (P28335 33-458): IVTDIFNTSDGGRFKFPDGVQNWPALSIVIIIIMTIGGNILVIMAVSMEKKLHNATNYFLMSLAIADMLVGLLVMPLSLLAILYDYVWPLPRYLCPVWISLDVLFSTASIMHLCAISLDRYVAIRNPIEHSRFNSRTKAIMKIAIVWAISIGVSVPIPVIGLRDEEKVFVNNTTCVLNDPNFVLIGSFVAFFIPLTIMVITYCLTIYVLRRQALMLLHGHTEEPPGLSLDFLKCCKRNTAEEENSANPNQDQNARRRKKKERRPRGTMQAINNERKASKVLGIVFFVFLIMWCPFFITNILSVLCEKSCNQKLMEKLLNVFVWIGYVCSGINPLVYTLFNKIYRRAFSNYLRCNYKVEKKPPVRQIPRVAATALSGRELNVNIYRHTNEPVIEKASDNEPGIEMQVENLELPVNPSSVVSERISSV
Nature of the test: FLIPR Ca2+ flux functional assay, 5-HT2C receptor (stably transfected HEK293). How it is done: as §1

Where [1] appears, read: agonist activity, Ca2+ flux, HEK293.
The mark [2] stands for this setting: agonist activity, Ca2+ flux, HEK293, read-out: 5-HT2A EC50.
The mark [3] stands for this setting: agonist activity, Ca2+ flux, CHO-K1.
Setting [4] is: agonist activity, Ca2+ flux, CHO-K1, read-out: 5-HT2B EC50.
Setting [5] is: agonist activity, Ca2+ flux, HEK293, read-out: 5-HT2C EC50.

T1 sequence (P28223 whole entry): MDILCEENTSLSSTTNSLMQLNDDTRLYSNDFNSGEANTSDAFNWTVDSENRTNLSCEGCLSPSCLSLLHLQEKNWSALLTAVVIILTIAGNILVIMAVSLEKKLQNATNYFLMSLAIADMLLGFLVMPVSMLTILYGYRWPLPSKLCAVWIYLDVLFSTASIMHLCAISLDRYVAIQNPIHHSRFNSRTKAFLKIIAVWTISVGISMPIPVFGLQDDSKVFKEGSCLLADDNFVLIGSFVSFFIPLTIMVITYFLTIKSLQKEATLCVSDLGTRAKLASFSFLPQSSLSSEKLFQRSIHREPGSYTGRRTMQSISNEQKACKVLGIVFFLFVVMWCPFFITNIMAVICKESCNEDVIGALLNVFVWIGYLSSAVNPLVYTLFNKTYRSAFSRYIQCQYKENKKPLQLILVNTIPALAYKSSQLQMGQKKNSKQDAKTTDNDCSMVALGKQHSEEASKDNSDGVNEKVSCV

As for `CCCN(CCC)CCc1cccc2cccc(OC)c12` [Example I-23, N-(2-(8-methoxynaphthalen-1-yl)ethyl)-N-propylpropan-1-amine], the values for the Emax at 5-HT2A (setting [1]), on 5-HT2B (setting [3]) and on 5-HT2C (setting [1]) were 93%, 89% and 88%, respectively. Besides, the EC50 at 5-HT2A (setting [2]) turned out to be 165 nM; on 5-HT2B (setting [4]), 103 nM; on 5-HT2C (setting [5]), 291 nM.

`COc1cccc2cccc(CCN(C(C)C)C(C)C)c12` [Example I-24, N-isopropyl-N-(2-(8-methoxynaphthalen-1-yl)ethyl)propan-2-amine]: the Emax was determined as 98% at 5-HT2A (setting [1]), 116% on 5-HT2B (setting [3]) and 90% on 5-HT2C (setting [1]). Further, the EC50 on 5-HT2A (setting [2]) was 1470 nM; on 5-HT2B (setting [4]), 4700 nM; at 5-HT2C (setting [5]) it was 2560 nM.

For the molecule `CCN(C)CCc1cccc2cccc(OC)c12` [Example I-25, N-ethyl-2-(8-methoxynaphthalen-1-yl)-N-methylethan-1-amine], the EC50 at 5-HT2A was 158 nM; on 5-HT2B it was greater than 10000 nM; on 5-HT2C it was 201 nM. Besides, the Emax at 5-HT2A (setting [1]) is 67%; at 5-HT2B (setting [3]) it was 24%; on 5-HT2C (setting [1]), 84%.

Take `CCCN(C)CCc1cccc2cccc(OC)c12` [Example I-27, N-(2-(8-methoxynaphthalen-1-yl)ethyl)-N-methylpropan-1-amine]: the EC50 on 5-HT2A is 213 nM; on 5-HT2B it was greater than 10000 nM; at 5-HT2C it was 211 nM. For the same molecule, the Emax at 5-HT2A (setting [1]) is 86%; at 5-HT2B (setting [3]) it was 2%; on 5-HT2C (setting [1]) it was 75%.

With `COc1cccc2cccc(CCN(C)C(C)C)c12` [Example I-28, N-(2-(8-methoxynaphthalen-1-yl)ethyl)-N-methylpropan-2-amine], the EC50 on 5-HT2A is 191 nM; at 5-HT2B, greater than 10000 nM; on 5-HT2C, 766 nM. In addition, the Emax at 5-HT2A (setting [1]) was found to be 94%; on 5-HT2B (setting [3]) it was 46%; on 5-HT2C (setting [1]), 76%.

What is called Emax is the size of the effect at its maximum, as opposed to the concentration needed. What is called EC50 is the concentration needed to bring the measured effect to its halfway point.
